Laboratory results reported in patent US20240156901A1, “GAL3BP POLYPEPTIDE COMPOSITIONS AND METHODS FOR TREATMENT OF CANCER AND DETERMINING TREATMENT RESPONSIVENESS” (UNIVERSITY OF PITTSBURGH-OF THE COMMONWEALTH SYSTEM OF …, priority 2021, published 2024).

Tests used:
[1] = molecular target: T1, binding of CHI3L1 and Gal3 (Homo sapiens, UniProt P36222); test: Co-IP with Gal3 antibody in THP-1 cells treated with peptides; conditions: 20 μM for 24 hours
T1 construct: endogenous in cells; host or cells: THP-1 cells
Procedure: TS603 cells overexpressing CHI3L1 with V5 tag (TS603 CHI3L1_V5_OE) or THP-1 cells treated with the peptides were collected and protein-protein interaction was crosslinked with 2 mM Dithiobis (succinimidyl propionate, DSP). Membrane proteins were extracted with the Membrane Protein Extraction Kit (ThermoFisher, Cat #89842) and ˜500 μg of protein was used for Co-IP assay by the Co-Immunoprecipitation Kit (ThermoFisher, Cat #26149).
(§2) For in vivo THP-1 cell or in vitro recombinant protein Co-IP experiments, additional following antibodies were used: Mouse anti-CHI3L1 (Santa Cruz Biotechnology, Cat #SC-393590), Rat anti-Galectin-3 (Santa Cruz Biotechnology, Cat #SC-23938), anti-Galectin-3BP (Santa Cruz Biotechnology, Cat #SC-374541), Rabbit anti-CHI3L1 (Cell Signaling Technology, Cat #47066), and Rat IgG (BioXCell, Cat #BE0090).

[2] = tested on: GL261-CHI3L1 orthotopic tumors; test: Peptide treatment of GL261-CHI3L1 orthotopic tumors (MRI, survival)
Procedure: (§3) Male and female ICR SCID and C57BL/6 mice (4-6 weeks of age) were purchased from Taconic Biosciences and The Jackson Laboratory, respectively. The intracranial xenograft tumor models were established as previously described (Hu B et al., 2016). Cells in 5 μL DPBS were injected at the following numbers: TS543 vector control or CHI3L1 overexpression (OE), 1×10^4 cells; QPP7 scrambled control or CHI3L1 knockdown (KD), 1×10^5 cells; and GL261 vector control or CHI3L1 OE, 1×10^5 cells. […] For mice treated with peptides, 5 uL of 20 uM SCP or GMP was delivered into the mouse brain every 4 days with a total of seven times.
(§4) MRI and bioluminescent imaging of mice were performed at Rangos Research Center Animal Imaging Core. The tumor size of mice detected by MRI was analyzed with ITK-SNAP.
For intracranial xenograft tumor models treated with peptides, mice were implanted with a guide screw prior to intracranial injection. To install the screw, mice were anesthetized by intraperitoneal (IP) injection with ketamine/xylazine solution (1.75 mL of 100 mg/mL ketamine and 0.25 mL of 100 mg/mL xylazine in 8 mL sterile water) at a dosage of 100 μL/20 g body weight. The screw was covered by sealing the skin, and mice were allowed to recover for one week before intracranial implantation. GL261 cells overexpressing CHI3L1 (1×10^5) were injected in 5 μL of DPBS containing 20 μM of either scrambled control peptide (SCP) or Gal3BP mimetic peptide (GMP). SCP (20 μM) or GMP (20 μM) was subsequently given once every 3 days with a total of seven times by intracranial injection via the guide screw.
(§5) All mice received general inhalation anesthesia with Isoflurane for in vivo brain imaging. […] Depth of anesthesia was monitored by toe reflex (extension of limbs, spine positioning) and respiration rate. […] Respiration was monitored using a pneumatic sensor placed between the animal bed and the mouse's abdomen, rectal temperature was measured with a fiberoptic sensor, and core temperature was maintained at 36.8±0.2° C. with a feedback-controlled warm air source (SA Instruments). […]

GL261-CHI3L1 glioma = test: Flow cytometry of immune cell populations in GL261-CHI3L1 glioma after peptide treatment; assay type: in vivo, mouse
Procedure: Mice with neurological deficits or moribund appearance were sacrificed. Tumors were separated and homogenized for 15 min at 37° C. in Collagenase IV Cocktail (3.2 mg/mL collagenase type IV, 2 mg/mL soybean trypsin inhibitor, and 1.0 mg/mL deoxyribonuclease I; Worthington Biochemical). Red blood cells were lysed using ACK lysing buffer (Gibco). Cell suspensions were filtered through 70-μm strainers, centrifuged, and resuspended in cold FACS buffer (DPBS with 1% BSA) for further analysis.
About 3×10^6 cells were used for each staining panel. Cells were incubated with 1.0 μg of TruStain fcX (BioLegend) for 10 min on ice to block Fc receptors, followed by staining with the combination of indicated antibodies. After staining, cells were washed with FACS buffer three times and incubated with Fixation Buffer (BioLegend) at RT for 20 min. Cells were washed with FACS buffer, resuspended in Cyto-Last Buffer (BioLegend), and analyzed by either a BD LSRFortessa or BD FACSAria II SORP. For CyTOF, samples were prepared as described above for flow cytometry. Three pairs of samples (scrambled shRNA vs Chi3l1 KD) with similar tumor sizes were chosen and the staining procedure was followed as previously described (Mitsialis V, et al., 2020). The samples were analyzed on a Helios2 CyTOF system (Fluidigm) at the Longwood Medical Area CyTOF Core. Additional information about flow cytometry antibodies is provided in the Supplementary Material and Methods section.

Gal3/CHI3L1 = test: Inhibition of Gal3/CHI3L1 by Gal3BP polypeptides; conditions: SEQ ID NO: 4 as compared to SEQ ID NO: 5
[3] = tested on: bone-marrow derived macrophages (BMDMs); test: Scratch-wound healing assay, BMDM migration; assay type: cell-based, mouse
Procedure: (§1) BMDMs were isolated from male and female C57BL/6 mice as previously described (Ying W et al., 2013). Briefly, femur bones were isolated from mice, and IMDM (ATCC) supplemented with 10% FBS and P/S was used to flush the bone marrow into a petri dish. After 4-6-hour incubation, the floating cells were collected and resuspended in the medium with 20 ng/mL M-CSF (PrproTech). On day 6, the fully differentiated cells were designated as an M0 state. To induce BMDM polarization toward an M1 state, 100 ng/mL LPS (Invitrogen) and 50 ng/mL IFNγ (PrproTech) were added to the M0 cells for 24 hours. To induce BMDM polarization toward an M2 state, 20 ng/mL IL-4 (PrproTech) was added to the M0 cells for 72 hours.
BMDM were polarized to the indicated status (M0, M1, or M2) and seeded in 12-well plates at 80-90% confluency. The cells were switched to the medium without FBS for 6 hours of starvation. Scratches were made using pipettor tips and fresh IMDM with indicated recombinant proteins and/or peptides were added. Images of the scratches were captured at indicated times. For the SIM-A9 scratch-wound healing assay, 12-well plates were coated with 10 μg/mL fibronectin (Sigma-Aldrich) at 37° C. overnight before seeding cells.

QPP7 glioma = test: Peptide treatment of orthotopic syngeneic QPP7 glioma (MRI, survival); conditions: orthotopic syngeneic mice bearing QPP7 glioma; local delivery into the brain; vs SCP
Procedure: as §3, §4
For intracranial xenograft tumor models treated with peptides, mice were implanted with a guide screw prior to intracranial injection. […]
as §5

[4] = molecular target: T2, Gal3 and CHI3L1 protein binding (Homo sapiens, UniProt P36222); test: In vitro recombinant protein Co-IP competition (rGal3 + rCHI3L1 + increasing rGal3BP); conditions: 200 ng rGal3+200 ng rCHI3L1; rGal3BP 0-800 ng/sample; with or without TD139
T2 construct: purchased R&D Systems 2599-CH-050 (CHI3L1); 8259-GA-050 (Galectin-3)
Source text: as §2

[5] = tested on: Arg1, Ym1, Ccl2, Il10 gene expression; test: qRT-PCR of immune suppression genes in M0 BMDMs; assay type: cell-based, mouse; conditions: rCHI3L1 2.5 μg/mL, rGal3 2.5 μg/mL, rGal3BP 5.0 μg/mL, 24 hours
Procedure: as §1
RNA was extracted and cDNA was synthesized as described previously (Hu B et al., 2016). qRT-PCR was performed using PowerSYBR Green PCR Master Mix (Applied Biosystems) and detected with a StepOnePlus Real-Time PCR System (Applied Biosystems). Each reaction was performed in duplicate or triplicate. The relative expression of genes was normalized to human RPL39 or mouse 18S ribosomal RNA. For RNA-seq experiments, cells from intracranial xenograft tumors were isolated and incubated with antibodies for immune cell types. Macrophages were isolated by FACS and RNA was then isolated and sent to Health Sciences Sequencing Core at UPMC Children's Hospital of Pittsburgh for RNA-seq. […]

PI3K/AKT/mTOR pathway = test: Immunoblot of PI3K/AKT/mTOR signaling and transcription factors in M0 BMDMs; assay type: cell-based, mouse; conditions: 30 minutes
Procedure: Cells were lysed on ice using RIPA buffer (Millipore) supplemented with protease and phosphatase inhibitors (Roche). The protein concentration was determined by the BCA method and 15˜30 ug of total proteins were loaded and analyzed by Western blotting with indicated antibodies. For IHC staining, brain tissues were fixed in 10% formalin overnight and embedded in paraffin. For IF staining, fresh brain tissues were immediately frozen in OCT on dry ice. IHC and IF staining were performed as we described previously (Hu B et al., 2016). Additional information about antibodies is provided in the Supplementary Material and Methods section
Immunoblotting (IB), Immunohistochemistry (IHC), and Immunofluorescence (IF). […]

[6] = tested on: bone-marrow derived macrophages (BMDMs); test: Transwell migration assay, BMDM migration; assay type: cell-based, mouse; conditions: rCHI3L1 2.5 μg/mL, rGal3BP 5.0 μg/mL
Procedure: as §1
Polarized BMDMs were starved by removing FBS for 6 hours. Cells were collected and 2×10^5 cells in 200 μL of IMDM were added into each transwell insert (Millipore, Cat #MCMP24H48). 700 μL of IMDM containing 2% FBS and the indicated recombinant proteins was added to the bottom of the plates. After 14-hour incubation, transwell inserts were stained with HEMA 3 Stain Set (Fisher Scientific). Insert membranes were separated and mounted on glass slides with CYTOSEAL XYL (ThermoFisher) and images were taken by an inverted microscope (Leica DM 2500). For the SIM-A9 cells, the inserts were coated with 10 μg/mL fibronectin overnight in advance of seeding cells.

[7] = GL261-CHI3L1 tumors, GMP in contrast to SCP
[8] = GMP-treated vs SCP-treated tumors, GL261-CHI3L1 model

T2 sequence (P36222 22-383): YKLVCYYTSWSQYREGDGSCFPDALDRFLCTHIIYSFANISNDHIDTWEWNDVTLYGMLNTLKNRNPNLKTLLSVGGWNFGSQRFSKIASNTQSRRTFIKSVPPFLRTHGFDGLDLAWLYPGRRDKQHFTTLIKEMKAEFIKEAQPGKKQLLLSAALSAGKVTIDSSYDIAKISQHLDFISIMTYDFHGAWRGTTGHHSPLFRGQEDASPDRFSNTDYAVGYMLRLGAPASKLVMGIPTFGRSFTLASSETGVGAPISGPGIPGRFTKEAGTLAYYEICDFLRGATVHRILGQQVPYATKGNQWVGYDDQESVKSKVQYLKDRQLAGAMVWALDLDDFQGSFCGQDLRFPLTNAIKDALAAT
T1 sequence (P36222 22-383): as above

Molecule: TLDLSRELSEALGQI [GMP]
- binding of CHI3L1 and Gal3 (Co-IP) [1]: decreasing binding of CHI3L1 and Gal3
- tumor growth (T2 MRI) ([2]; C57BL/6 mice bearing GL261-CHI3L1, GMP compared to SCP): reduced tumor growth
- median survival ([2]; C57BL/6 mice bearing GL261-CHI3L1 orthotopic tumors, 20 μM peptide into brain tumor via guide screw): 36 days
- CD8+ cells (GL261-CHI3L1 glioma; [7]): significantly increased
- T cells (CD3+) (GL261-CHI3L1 glioma; [7]): significantly increased
- PD-L1 expression in CD45+, CD8+ and CD4+ cells (GL261-CHI3L1 glioma; GMP treatment): only a decreasing trend
- PD-L1 expression in glioma cells (GL261-CHI3L1 glioma; GMP treatment): significantly decreased
- CTLA-4 level in CD4+ T cells (GL261-CHI3L1 glioma; GMP vs SCP): a trend of elevated levels
- PD-1 level in CD4+ T cells (GL261-CHI3L1 glioma; GMP vs SCP): a trend of elevated levels
- CTLA-4 expression in CD8+ T cells (GL261-CHI3L1 glioma; [8]): significantly upregulated
- PD-1 expression in CD8+ T cells (GL261-CHI3L1 glioma; [8]): significantly upregulated
- PD-L1 expression in CD45+, CD8+ immune cells, and glioma cells (GL261-CHI3L1 glioma; preclinical mouse models, as restated in Example 8): significantly decrease
- CD4+ cell population (GL261-CHI3L1 glioma; tumors of C57BL/6 mice bearing GL261-CHI3L1): 41.9±4.5%
- M2-like TAMs (GL261-CHI3L1 glioma; tumors of C57BL/6 mice bearing GL261-CHI3L1, mean±SEM, P=0.0536): 42.8±3.8%
- M1-like TAMs (GL261-CHI3L1 glioma; tumors of C57BL/6 mice bearing GL261-CHI3L1, mean±SEM, P=0.0719): 49.5±4.0%
- inhibition of Gal3/CHI3L1 (Gal3/CHI3L1): increased inhibition
- rCHI3L1-induced BMDM migration, dose dependence ([3]; M2 BMDMs, rCHI3L1 0.6 μg/mL, different concentrations of peptide, 6 hours): inhibits rCHI3L1-induced BMDM migration in a dose-dependent manner
- rCHI3L1-promoted M2 BMDM migration ([3]; rCHI3L1 0.6 μg/mL, peptide 30 μM, compared with SCP): significantly inhibited
- rCHI3L1+rGal3-induced M0 BMDM migration ([3]; rCHI3L1 2.5 μg/mL, rGal3 2.5 μg/mL, peptide 30 μM, in contrast to SCP): attenuated
- mouse survival (QPP7 glioma): increased mouse survival
- tumor size (QPP7 glioma): decreased tumor size

B1: rGal3BP: recombinant Gal3BP protein; Galectin-3-binding protein, monomer PDB 6GFB used for docking (protein)
chain: VNDGDMRLADGGATNQGRVEIFYRGQWGTVCDNLWDLTDASVVCRALGFENATQALGRAAFGQGSGPIMLDEVQCTGTEASLADCKSLGWLKSNCRHERDAGVVCTNETRSTHTLDLSRELSEALGQIFDSQRGCDLSISVNVQGEDALGFCGHTVILTANLEAQALWKEPGSNVTMSVDAECVPMVRDLLRYFYSRRIDITLSSVKCFHKLASAYGARQLQGYCASLFAILLPQDPSFQMPLDLYAYAVATGDALLEKLCLQFLAWNFEALTQAEAWPSVPTDLLQLLLPRSDLAVPSELALLKAVDTWSWGERASHEEVEGLVEKIRFPMMLPEELFELQFNLSLYWSHEALFQKKTLQALEFHTVPFQLLARYKGLNLTEDTYKPRIYTSPTWSAFVTDSSWSARKSQLVYQSRRGPLVKYSSDYFQAPSDYRYYPYQSFQTPQHPSFLFQDKRVSWSLVYLPTIQSCWNYGFSCSSDELPVLGLTKSGGSDRTIAYENKALMLCEGLFVADVTDFEGWKAAIPSALDTNSSKSTSSFPCPAGHFNGFRTVIRPFYLTNSSGVD
- competition with Gal3 for binding CHI3L1 (Co-IP) [4]: compete for the same binding site in CHI3L1
- expression of genes related to anti-inflammation (Arg1, Ym1, Ccl2, Il10) [5]: significantly inhibited
- levels of p-AKT (T473 and S308), p-S6, and p-mTOR (PI3K/AKT/mTOR pathway): inhibited
- rCHI3L1-induced M2 BMDM migration ([3]; rCHI3L1 2.5 μg/mL, rGal3BP 5.0 μg/mL, scratch-wound healing): significantly attenuated
- rCHI3L1-induced M2 BMDM migration [6]: significantly attenuated
